System: NCI-H322M multicellular tumor spheroids, viability (% test/control)
Test: Anticancer human tumor NCI-H322M cell line growth inhibition;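 on viability, T/C: spheroids exposed to compound for seven days before readout; 100% = DMSO vehicle control wells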
Conditions: for IC50: curve of first compound; for viability, T/C: stronger effect = lower value
In short: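 Single agents and combinations were tested on spheroids built from tumor cells plus HUVEC and hMSC, at half-log dilutions starting at or near clinical Cmax, else 10 microM; final DMSO 0.25% (v/v).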

With `CC(C)n1c(=O)n(C)c2cnc3cc(F)c(-c4ccc(OCCCN5CCCCC5)nc4)cc3c21` + Cn1nnc2c(C(N)=O)ncn2c1=O the IC50 (second compound 1 µM) was over 10 µM, the IC50 (second compound 3.16 µM) was over 10 µM and the IC50 (second compound 10 µM) was over 10 µM. The IC50 (second compound 31.6 µM) was over 10 µM, the IC50 (second compound 100 µM) was over 10 µM and the viability, T/C (second compound 1 µM, first compound 0.0316 µM) was 86.7%. The viability, T/C (second compound 1 µM, first compound 0.1 µM) was 82.1%, the viability, T/C (second compound 1 µM, first compound 0.316 µM) was 85% and the viability, T/C (second compound 1 µM, first compound 1 µM) was 95.4%. It also gave a viability, T/C (second compound 1 µM, first compound 3.16 µM) of 92%, a viability, T/C (second compound 1 µM, first compound 10 µM) of 77.9% and a viability, T/C (second compound 3.16 µM, first compound 0.0316 µM) of 83.8%. It also gave a viability, T/C (second compound 3.16 µM, first compound 0.1 µM) of 70.6%, a viability, T/C (second compound 3.16 µM, first compound 0.316 µM) of 83.1% and a viability, T/C (second compound 3.16 µM, first compound 1 µM) of 78.7%. It also gave a viability, T/C (second compound 3.16 µM, first compound 3.16 µM) of 81.3%, a viability, T/C (second compound 3.16 µM, first compound 10 µM) of 82.5% and a viability, T/C (second compound 10 µM, first compound 0.0316 µM) of 76.8%. It also gave a viability, T/C (second compound 10 µM, first compound 0.1 µM) of 84.7%, a viability, T/C (second compound 10 µM, first compound 0.316 µM) of 89.4% and a viability, T/C (second compound 10 µM, first compound 1 µM) of 98.5%. For the same molecule, the viability, T/C (second compound 10 µM, first compound 3.16 µM) was 96.4%, the viability, T/C (second compound 10 µM, first compound 10 µM) was 79.1% and the viability, T/C (second compound 31.6 µM, first compound 0.0316 µM) was 94.9%. It also gave a viability, T/C (second compound 31.6 µM, first compound 0.1 µM) of 74.8%, a viability, T/C (second compound 31.6 µM, first compound 0.316 µM) of 81.9% and a viability, T/C (second compound 31.6 µM, first compound 1 µM) of 85.2%. The viability, T/C (second compound 31.6 µM, first compound 3.16 µM) was 98.2%, the viability, T/C (second compound 31.6 µM, first compound 10 µM) was 84.7% and the viability, T/C (second compound 100 µM, first compound 0.0316 µM) was 85%. The viability, T/C (second compound 100 µM, first compound 0.1 µM) was 93.4%, the viability, T/C (second compound 100 µM, first compound 0.316 µM) was 82.1% and the viability, T/C (second compound 100 µM, first compound 1 µM) was 88.5%. The viability, T/C (second compound 100 µM, first compound 3.16 µM) was 83% and the viability, T/C (second compound 100 µM, first compound 10 µM) was 87%.

From PubChem BioAssay AID1845211 (Molecular Pharmacology Branch, DTP, NCI, 2023)
